Earlier results on 2 compounds are cited in patent publication US20240360088A1, “WATER-SOLUBLE NERVE DYES FOR IN VIVO NERVE-SPECIFIC IMAGING” (Oregon Health & Science University, priority 2021, published 2024).

The data set relates to rodent nerves. To be noted: for nerve specificity: direct and systemic administration, preclinical.

As to `CC/N=c1/cc2oc3cc(NCC)c(C)cc3nc-2cc1C` [Oxazine 4], the nerve specificity entry is listed as “high nerve specificity”. Further, the nerve-specific signal entry (systemic administration) is “nerve-specific signal following systemic administration in all rodent nerves”.

As for `CCNc1cc2oc3cc(=[N+](CC)CC)ccc-3nc2cc1C` [Comparative Example No. 1, 3-(diethyl-14-azaneylidene)-N-ethyl-8-methyl-3H-phenoxazin-7-amine], the nerve specificity result is “high nerve specificity”. Further, under “co-solvent formulation as vehicle for intravenous injection”, the “fluorescence signal for real time imaging” value was “adequate fluorescence signal”.
